In patent US6762052B1, “DNA sequence encoding flavin-containing monooxygenase” (priority 1993, dated 2004) one finds Km and Vmax data, which are given here for one molecule.

In this assay the target is T1, lys158-HFMO3-MBP (Homo sapiens, UniProt P31513, E158K).
T1 sequence (P31513 2-532 E158K): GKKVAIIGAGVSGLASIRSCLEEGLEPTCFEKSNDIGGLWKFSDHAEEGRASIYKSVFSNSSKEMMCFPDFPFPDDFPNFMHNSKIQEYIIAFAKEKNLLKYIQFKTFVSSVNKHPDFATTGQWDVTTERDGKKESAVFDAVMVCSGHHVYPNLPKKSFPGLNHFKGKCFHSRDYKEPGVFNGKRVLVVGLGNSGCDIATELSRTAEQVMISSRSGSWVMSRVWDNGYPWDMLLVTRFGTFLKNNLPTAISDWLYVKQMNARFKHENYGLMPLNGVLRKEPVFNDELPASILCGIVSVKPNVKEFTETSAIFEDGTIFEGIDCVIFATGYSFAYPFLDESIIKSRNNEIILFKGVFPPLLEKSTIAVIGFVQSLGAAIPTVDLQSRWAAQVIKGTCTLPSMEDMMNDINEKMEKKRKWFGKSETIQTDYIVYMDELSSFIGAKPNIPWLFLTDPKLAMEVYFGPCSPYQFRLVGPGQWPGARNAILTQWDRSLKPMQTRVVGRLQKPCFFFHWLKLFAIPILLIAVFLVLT
Put plainly: Substrate oxygenation by lys158-HFMO3-MBP fusion protein, HPLC. To be noted: lys158-HFMO3-MBP, N-oxygenation. As for the experimental part: For HFMO3-MBP assay, all HFMO3-MBP incubations were done as follows: Into a test tube was added DETAPAC (1.2 mM, final concentration for a 250 μl reaction) followed by the addition of 60 μl NADPH generating system (0.4 mM NADP, 0.4 mM glucose-6-phosphate, and 20 μl of a 50 units mI^−1 glucose-6-phosphate dehydrogenase). The tube was chilled on ice and buffer and enzyme were added as described below for individual experiments to give a volume of 240 μl. The incubation was initiated by the addition of 5-DTP (10 μl of 5 mM) and placed in a shaking water bath at 37° C. for 10 min (unless specified otherwise). The incubation was stopped by the addition of 1.0 ml of ice-cold CH2Cl2. Following the addition of sodium carbonate (approx. 20 mg), the culture tube was vortexed, centrifuged (2000×g, 10 min), and the organic layer was removed and transferred to a 1.5 ml microfuge tube. The organic solvent was evaporated under a stream of Ar(g) to dryness and the residue was taken up in MeOH (300 μl) for determination HPLC analysis.
Data was analyzed with a Hitachi D-2500 integrator.
MTS-oxygenation assays were carried out under the same buffer, temperature, time and volume conditions, as for the N-oxygenation assays. The reactions were initiated upon addition of 10 μl of a 5 mM solution of MTS. The reaction was quenched with the addition of 700 μl of 80% CH3CN:20% hexane then 20 mg NaCl(s) and vortexed vigorously for 10 sec. The quenched reactions were then centrifuged briefly to separate the phases. The organic layer, containing product and substrate, was removed and used directly for HPLC analysis.
All other instruments used were the same as above for the N-oxygenation reactions. Conditions for elution were 50% CH3CN/H2O (v:v) with a flow rate gradient as follows: 1.5 ml min^−1 from 0 to 4 min., 1.5-2.5 ml min^−1 from 4 to 5 min, 2.5 ml min^−1 from 5 to 15 min.
Trimethylamine is commonly ingested in foodstuffs or it is available in the diet of humans from choline and other sources. Trimethylamine (TMA) is exclusively eliminated in humans by metabolism to trimethylamine N-oxide (TMANO). […] Thus, urinary TMANO formation provides a simple, reliable and direct assay of FMO3 activity in adult humans. Analysis of TMA to TMANO ratios provides a direct means of phenotyping adult humans for FMO3 activity. Phenotyping FMO3 activity in humans would provide a simple means of evaluating the relationship between the presence of FMO3 and various disease conditions. […]

Usually Km stands for the substrate concentration at which the rate is half of its maximum.

Regarding `CN(C)CCCCCN1c2ccccc2Sc2ccc(C(F)(F)F)cc21` [Compound 5], the Km came to 78 µM. Besides, the Vmax (Lineweaver-Burke analysis) was 1.88 nmole/min/nmol of flavin.
